The source made the active and inactive calls.

Assay [1] is filed under the species Homo sapiens. Briefly: Binding affinity to biotin-labeled human wild type internal ribosome entry site A RNA G-quadruplex by SPR analysis.
The nature of assay [2]: Binding affinity to biotin-labeled DNA hairpin (unknown origin) by SPR analysis. On the technique in general: In SPR one partner is held on a chip, and binding of the other changes the refractive index at the surface.
For assay [3], the species on record is Homo sapiens. Kind of assay: Binding affinity to biotin-labeled human 5'-UGAUGAGUGUGAGGAGGA-3' RNA G-quadruplex by SPR analysis.
Assay [4] is filed under the species Homo sapiens. Kind of assay: Destabilization of human 5'-UGAAGAGUGUGAGUAGUA-3' RNA expressed in MCF7 cells assessed as down regulation of VEGF-A translation at up to 1.5 uM after 24 hrs by dual-luciferase reporter gene assay. In kind it is cell-based.
Assay [5] is filed under the species Homo sapiens. Kind of assay: Destabilization of human wild type internal ribosome entry site A RNA G-quadruplex assessed as melting temperature at 5 uM by CD spectra method (reference value: 80.9 +/- 0.8 degreeC).
For assay [6], the species on record is Homo sapiens. Briefly: Destabilization of human wild type internal ribosome entry site A RNA G-quadruplex expressed in MCF7 cells assessed as down regulation of VEGF-A translation up to 0.5 uM after 24 hrs by dual-luciferase reporter gene assay relative to control. Type of assay: cell-based. (In general: Reporter assays use an easily measured gene product as a stand-in for the process of interest.)

Regarding `COc1ccc2cc3[n+](cc2c1NCCc1ccccc1)CCc1cc2c(cc1-3)OCO2`, the outcome (in the assay filed under Homo sapiens [1]; in assay [2]; in the assay listed under Homo sapiens [3]) was Active.

Consider `COc1ccc2cc3[n+](cc2c1NCCCN1CCCCC1)CCc1cc2c(cc1-3)OCO2`, for which the result (in the assay filed under Homo sapiens [1]; in assay [2]; in the assay filed under Homo sapiens [3]) was Active.

As to `CN(C)CCCNc1c2ccccc2[n+](C)c2c1oc1ccc(OCC[N+]3(C)CCCCC3)cc12`, the result (in the assay listed under Homo sapiens [1]; in assay [2]; in the assay filed under Homo sapiens [3]) was Active.

For the compound `C[n+]1c2ccccc2c(NCCN2CCCCC2)c2oc3ccc(OCC4CC[N+](C)(C)CC4)cc3c21`, the result (in the assay filed under Homo sapiens [1]; in assay [2]; in the assay filed under Homo sapiens [3]) was Active.

On to `CCN(CC)CCCNc1c2ccccc2[n+](C)c2c1oc1ccc(OCC[N+](C)(C)C)cc12`, for which the outcome (in the assay listed under Homo sapiens [1]; in assay [2]; in the assay listed under Homo sapiens [3]) was Active.

In the case of `C[n+]1c2ccccc2c(NCCCN2CCOCC2)c2oc3ccc(OCC4CC[N+](C)(C)CC4)cc3c21`, the outcome (in the assay listed under Homo sapiens [1]; in assay [2]; in the assay filed under Homo sapiens [3]) was Active.

Consider `CN(C)CCCNc1c2ccccc2[n+](C)c2c1oc1ccc(OCC3CC[N+](C)(C)CC3)cc12`, for which the result (in the assay filed under Homo sapiens [1]; in assay [2]; in the assay filed under Homo sapiens [3]) was Active.

Regarding `CCN(CC)CCNc1c2ccccc2[n+](C)c2c1[nH]c1ccccc12`, the outcome (in the assay listed under Homo sapiens [1]; in assay [2]; in the assay filed under Homo sapiens [3]) was Active.

Consider `CCN(CC)CCNc1c2ccccc2[n+](C)c2c1oc1ccc(OCC[N+]3(C)CCCCC3)cc12`, for which the outcome (in the assay listed under Homo sapiens [1]; in assay [2]; in the assay listed under Homo sapiens [3]) was Active.

For `CN1CCC(COc2ccc3oc4c(NCC(=O)NCC(=O)NC(CCCNC(=N)N)C(=O)NC(CC(=O)O)C(=O)O)c5ccccc5nc4c3c2)CC1` (centres undefined), the outcome (in the assay listed under Homo sapiens [1]; in assay [2]; in the assay filed under Homo sapiens [3]) was Active.

In the case of `CN(C)CCCNc1c2ccccc2[n+](C)c2c1oc1ccc(OCCC[N+](C)(C)C)cc12`, the result (in the assay listed under Homo sapiens [1]; in assay [2]; in the assay filed under Homo sapiens [3]) was Active.

Consider `CCN(CC)CCNC(=O)COc1ccc2oc3c(NCCN(CC)CC)c4ccccc4[n+](C)c3c2c1`, for which the outcome (in the assay filed under Homo sapiens [1]; in assay [2]; in the assay filed under Homo sapiens [3]) was Active.

Regarding `C[n+]1c2ccccc2c(NCCCO)c2[nH]c3ccccc3c21`, the result (in the assay listed under Homo sapiens [1]; in assay [2]; in the assay listed under Homo sapiens [3]) was Active.

`CN(C)CCCNc1c2ccccc2[n+](C)c2c1oc1ccc(OCC[N+]3(C)CCOCC3)cc12`: the outcome (in the assay filed under Homo sapiens [1]; in assay [2]; in the assay listed under Homo sapiens [3]) was Active.

Turning to `NC(=O)c1ccccc1NC(=O)c1ccccc1[N+](=O)[O-]`, in the assay listed under Homo sapiens [4], the outcome was inactive.

In the case of `CN(C)CCNc1c2ccccc2[n+](C)c2c1oc1ccccc12`, the outcome (in the assay filed under Homo sapiens [1]; in assay [2]; in the assay filed under Homo sapiens [3]) was Active.

In the case of `CN(C)CCNc1c2ccccc2[n+](C)c2c1oc1ccc(OCC[N+]3(C)CCOCC3)cc12`, the outcome (in the assay filed under Homo sapiens [1]; in assay [2]; in the assay filed under Homo sapiens [3]) was Active.

As to `CCN(CC)CCNc1c2ccccc2[n+](C)c2c1oc1ccc(OCCC[N+](C)(C)C)cc12`, the result (in the assay filed under Homo sapiens [1]; in assay [2]; in the assay filed under Homo sapiens [3]) was Active.

`CN(C)CCNc1c2ccccc2[n+](C)c2c1oc1ccc(OCCC[N+](C)(C)C)cc12`: the outcome (in the assay filed under Homo sapiens [1]; in assay [2]; in the assay filed under Homo sapiens [3]) was Active.

Turning to `C[n+]1c2ccccc2c(NCCN2CCOCC2)c2oc3ccc(OCCC[N+](C)(C)C)cc3c21`, the result (in the assay filed under Homo sapiens [1]; in assay [2]; in the assay filed under Homo sapiens [3]) was Active.

`C[n+]1c2ccccc2c(NCC(=O)NCC(=O)NC(CCCNC(=N)N)C(=O)O)c2oc3ccccc3c21` (centres undefined): the outcome (in the assay listed under Homo sapiens [1]; in assay [2]; in the assay filed under Homo sapiens [3]) was Active.

In the case of `CN(C)CCNc1c2ccccc2[n+](C)c2c1oc1ccc(OCC3CC[N+](C)(C)CC3)cc12`, the result (in the assay listed under Homo sapiens [1]; in assay [2]; in the assay filed under Homo sapiens [3]) was Active.

As for `CCN(CC)CCCNc1c2ccccc2[n+](C)c2c1oc1ccc(OCC[N+]3(C)CCOCC3)cc12`, the outcome (in the assay listed under Homo sapiens [1]; in assay [2]; in the assay filed under Homo sapiens [3]) was Active.

Turning to `CCN(CC)CCNc1c2ccccc2[n+](C)c2c1oc1ccc(OCC[N+](C)(C)C)cc12`, the outcome (in the assay filed under Homo sapiens [1]; in assay [2]; in the assay listed under Homo sapiens [3]) was Active.

On to `COc1ccc2cc3[n+](cc2c1NCCCN(C)C)CCc1cc2c(cc1-3)OCO2`, for which the result (in the assay listed under Homo sapiens [1]; in assay [2]; in the assay filed under Homo sapiens [3]) was Active.

Consider `C[n+]1c2ccccc2c(NCCN2CCOCC2)c2oc3ccc(OCC4CC[N+](C)(C)CC4)cc3c21`, for which the result (in the assay listed under Homo sapiens [1]; in assay [2]; in the assay filed under Homo sapiens [3]) was Active.

Take `C[n+]1c2ccccc2c(NCC(=O)NCC(=O)NCC(=O)O)c2oc3ccccc3c21`: the outcome (in the assay filed under Homo sapiens [1]; in assay [2]; in the assay listed under Homo sapiens [3]) was Active.

With `C[n+]1c2ccccc2c(NCCCN2CCOCC2)c2oc3ccc(OCC[N+]4(C)CCOCC4)cc3c21`, the result (in the assay filed under Homo sapiens [1]; in assay [2]; in the assay filed under Homo sapiens [3]) was Active.

With `CN(C)CCCNc1c2ccccc2[n+](C)c2c1[nH]c1ccc(F)cc12`, the outcome (in the assay filed under Homo sapiens [1]; in assay [2]; in the assay listed under Homo sapiens [3]) was Active.

Consider `COc1ccc2cc3[n+](cc2c1NCCCN1CCOCC1)CCc1cc2c(cc1-3)OCO2`, for which the outcome (in the assay filed under Homo sapiens [1]; in assay [2]; in the assay listed under Homo sapiens [3]) was Active.

`CN(C)CCNc1c2ccccc2[n+](C)c2c1oc1ccc(OCC[N+]3(C)CCCCC3)cc12`: the outcome (in the assay filed under Homo sapiens [1]; in assay [2]; in the assay listed under Homo sapiens [3]) was Active.

Regarding `CCN(CC)CCCNc1c2ccccc2[n+](C)c2c1oc1ccc(OCC(=O)NCCCN(C)C)cc12`, the outcome (in the assay filed under Homo sapiens [1]; in assay [2]; in the assay filed under Homo sapiens [3]) was Active.

As for `CCN(CC)CCCNc1c2ccccc2[n+](C)c2c1[nH]c1ccccc12`, the result (in the assay filed under Homo sapiens [1]; in assay [2]; in the assay listed under Homo sapiens [3]) was Active.

With `C[n+]1c2ccccc2c(NCCCN2CCOCC2)c2oc3ccc(OCC[N+](C)(C)C)cc3c21`, the outcome (in the assay filed under Homo sapiens [1]; in assay [2]; in the assay listed under Homo sapiens [3]) was Active.

Take `C[n+]1c2ccccc2c(NCCN2CCOCC2)c2oc3ccc(OCC[N+](C)(C)C)cc3c21`: the outcome (in the assay filed under Homo sapiens [1]; in assay [2]; in the assay filed under Homo sapiens [3]) was Active.

For the compound `CN(C)CCNc1c2ccccc2[n+](C)c2c1oc1ccc(OCC[N+](C)(C)C)cc12`, the outcome (in the assay filed under Homo sapiens [1]; in assay [2]; in the assay listed under Homo sapiens [3]) was Active.

With `CCN(CC)CCNc1c2ccccc2[n+](C)c2c1oc1ccc(OCC3CC[N+](C)(C)CC3)cc12`, the outcome (in the assay listed under Homo sapiens [1]; in assay [2]; in the assay listed under Homo sapiens [3]) was Active.

As for `CCN(CC)CCCNc1c2ccccc2[n+](C)c2c1oc1ccc(OCC3CC[N+](C)(C)CC3)cc12`, the outcome (in the assay listed under Homo sapiens [1]; in assay [2]; in the assay listed under Homo sapiens [3]) was Active.

Regarding `CN(C)CCCNc1c2ccccc2[n+](C)c2c1oc1ccc(OCC[N+](C)(C)C)cc12`, the result (in the assay listed under Homo sapiens [1]; in assay [2]; in the assay filed under Homo sapiens [3]) was Active.

For `CN(C)CCCNC1C2=Nc3ccccc3C2=Nc2ccccc21` (centres undefined), the Tm in the assay listed under Homo sapiens [5] was > 81 °C. For the same compound, the result in the assay filed under Homo sapiens [6] was inactive.

On to `C[n+]1c2ccccc2c(NCCN2CCOCC2)c2oc3ccc(OCC[N+]4(C)CCOCC4)cc3c21`, for which the outcome (in the assay listed under Homo sapiens [1]; in assay [2]; in the assay listed under Homo sapiens [3]) was Active.

For the compound `CN(C)CCNc1c2ccccc2[n+](C)c2c1[nH]c1ccc(F)cc12`, the outcome (in the assay listed under Homo sapiens [1]; in assay [2]; in the assay listed under Homo sapiens [3]) was Active.

Regarding `CN1CCC(COc2ccc3oc4c(NCC(=O)NCC(=O)NC(CCCNC(=N)N)C(=O)NC(CO)C(=O)O)c5ccccc5nc4c3c2)CC1` (centres undefined), the result (in the assay filed under Homo sapiens [1]; in assay [2]; in the assay listed under Homo sapiens [3]) was Active.

With `CCN(CC)CCCNc1c2ccccc2[n+](C)c2c1oc1ccc(OCCC[N+](C)(C)C)cc12`, the outcome (in the assay listed under Homo sapiens [1]; in assay [2]; in the assay listed under Homo sapiens [3]) was Active.

The values are drawn from ChEMBL document CHEMBL4014333, “Discovery of Small Molecules for Repressing Cap-Independent Translation of Human Vascular Endothelial Growth Factor (hVEGF) as Novel Antitumor Agents” (J Med Chem, 2017).
